Experimental data: the NIST ThermoML archive (doi:10.1016/j.tca.2015.08.011)

Legend:
[1] = 101.33 kPa, Crystal, Laser pulse heating
[2] = molar heat capacity at constant pressure; details: 101.33 kPa, Crystal, Small sample (50 mg) DSC

[Ce+4].[O-2].[O-2] [ceric oxide]
Details | molar heat capacity at constant pressure, [2] [J/K/mol] | thermal conductivity, [1] [W/m/K]
298.15 K | – | 15.15
323.15 K | 57.9 | –
373.15 K | 62.1 | –
423.15 K | 65.42 | –
473.15 K | 67.99 | –
523.15 K | 69.93 | –
573.15 K | 71.34 | –
623.15 K | 72.32 | –
673.15 K | 72.96 | –
723.15 K | 73.34 | –
773.15 K | 73.53 | 6.05
823.15 K | 73.6 | –
873.15 K | 73.58 | –
923.15 K | 73.53 | –
973.15 K | 73.48 | –
1023.1 K | 73.44 | –
1073.2 K | 73.46 | –
1123.2 K | 73.51 | –
1173.2 K | 73.61 | –
1273.2 K | – | 2.7
